Reference: US4418068A, “Antiestrogenic and antiandrugenic benzothiophenes” (Eli Lilly and Company, priority 1981, dated 1983)

What was measured:
[1] = test system: estrogenic response of estradiol; experiment: Antiestrogenic Test, immature mice (uterine weight); format: in vivo; conditions: Experiment B, s.c. + estradiol 0.3 mcg.
Method: This test was conducted with immature 40-45 g. female rats, immature 11-13 g. mice, and adult ovariectomized mice. The rats were tested in groups of six, and mice in groups of ten. All of the laboratory animals were from standardized strains and were equilibrated to the laboratory before the test started. Each test was begun by administering the test compound daily for three days, as a subcutaneous injection or by oral gavage, as indicated below in the reports of individual experiments.
The test animals were treated for three days and sacrificed on the fourth day, and the uteri were removed, freed of extraneous tissue, and blotted with paper towels. The uteri were weighed to the nearest 0.1 mg.
The uterine weights are given, in mg., as the means of all of the organ weights of the animals in a group. Compounds are referred to by their example numbers above.
The same standardized types of laboratory animals which were used in the experiments described above were also used in these experiments. […] Untreated control animals were used in each experiment. […] The dosage and sacrifice schedule, and the method of determining uterine weights and reporting data, were the same as the methods described above under Test 1.

[2] = test system: androgen-stimulated prostate growth; experiment: Anti-Androgen Test, immature male rats (ventral prostate weight); format: in vivo
Method: (§1) The animals used in this test were adult male rats having a body weight which averaged about 330 g. when the experiment ended. All of the animals to be used in the experiment were castrated by the scrotal route, and were held untreated for 3 days. On the fourth day, subcutaneous administration of 0.1 mg./day of an exogenous androgen, testosterone propionate, was begun, and was continued for seven consecutive days. An untreated control group of animals received injections of 0.1 ml./day of corn oil as a blank treatment. The compound of this invention was administered orally or subcutaneously to the treated animals in 0.1 ml. of corn oil, at the same time that the androgen was administered. The animals were sacrificed 24 hours after the last injection of testosterone propionate, the ventral prostate glands were removed and weighed, and the mean of the weights of each treatment group was reported.
This experiment was carried out in the same manner as Experiment A above, except that the test animals were immature male rats, weighing about 120 g. each at sacrifice. Each treatment group consisted of six or seven animals. All treatments in this experiment were administered by subcutaneous injection. The amount of the androgen administered was only 20 mcg./day because of the small size of the animals.
This experiment was also conducted in immature rats having average body weight of about 115 g. when the experiment ended. In other respects, the experiment was as described under Experiment B above. The treatment groups consisted of ten animals each, except for the androgen only group, of 16 animals, and the 5 mg./kg. group, of nine animals.

[3] = test system: androgen-stimulated prostate growth; experiment: Anti-Androgen Test, adult castrated male rats (ventral prostate weight); format: in vivo; conditions: for Mean Prostate Weight: Experiment A
Method: The antiandrogenic property of the compounds was evaluated in the following tests, in which the compound of Example 3 was used again.
as §1, with “reported. The table below reports the mean weights resulting from administration of various doses of the compound along with androgen.” for “reported.”
Each treatment group of animals in this experiment consisted of seven to nine animals, except for the untreated control group, which contained twelve animals.

[4] = test system: estrogenic response; experiment: Estrogenic Response Test, mature ovariectomized mice (uterine weight); format: in vivo, adult ovariectomized mice; conditions: Experiment E, s.c.
Method: The first test reported below is used to determine the estrogenic potency of compounds. It is well known that many compounds having antiestrogenic activity also, typically, have estrogenic activity. As has been explained, estrogenic activity is a liability in an antiestrogen, and thus it is important to identify antiestrogens having a minimum amount of estrogenic activity. This test was conducted with immature 40-45 g. female rats, immature 11-13 g. mice, and adult ovariectomized mice. The rats were tested in groups of six, and mice in groups of ten. All of the laboratory animals were from standardized strains and were equilibrated to the laboratory before the test started. Each test was begun by administering the test compound daily for three days, as a subcutaneous injection or by oral gavage, as indicated below in the reports of individual experiments. Untreated control animals were included in each experiment, along with animals to which estradiol was administered subcutaneously. The estradiol-treated animals provided positive controls, showing the physiological effect of a potent estrogen on the individual group of animals used in the experiment. […] The test animals were treated for three days and sacrificed on the fourth day, and the uteri were removed, freed of extraneous tissue, and blotted with paper towels. The uteri were weighed to the nearest 0.1 mg. The tables below report the results of representative experiments. The doses of estradiol and of the compound of this invention are given as the total of the three daily doses. The uterine weights are given, in mg., as the means of all of the organ weights of the animals in a group. Compounds are referred to by their example numbers above.

O=C(c1ccc(OCCN2CCCCC2)cc1)c1c(-c2ccc(O)cc2)sc2cc(O)ccc12 [Example 3, 6-hydroxy-2-(4-hydroxyphenyl)-3-[4-(2-piperidinoethoxy)benzoyl]benzo[b]thiophene]
Uterine weight ([1]; 3 mg.): 13.9 mg
Uterine weight ([1]; 0.03 mcg.): 41.3 mg
Uterine weight ([1]; 0.3 mcg.): 40.6 mg
Uterine weight ([1]; 3 mcg.): 26.5 mg
Uterine weight ([1]; 30 mcg.): 18.9 mg
Uterine weight ([1]; 300 mcg.): 14.6 mg
Mean Prostate Weight ([2]; Experiment B, 0.5 mg./kg./day s.c. + androgen 20 mcg./day): 33.8 mg
average prostate weight, one animal excluded ([2]; Experiment B, 0.5 mg./kg./day s.c. + androgen, animal with 54 mg. prostate excluded): 30.5
Mean Prostate Weight ([2]; Experiment B, 5 mg./kg./day s.c. + androgen 20 mcg./day): 36.6 mg
Mean Prostate Weight ([2]; Experiment C, 0.05 mg./kg./day s.c. + androgen): 34.0 mg
Mean Prostate Weight ([2]; Experiment C, 0.5 mg./kg./day s.c. + androgen): 31.1 mg
Mean Prostate Weight ([2]; Experiment C, 5 mg./kg./day s.c. + androgen): 29.0 mg
Mean Prostate Weight ([3]; 0.01 mg./day, S.C. + testosterone propionate 0.1 mg./day): 253 mg
Mean Prostate Weight ([3]; 0.01 mg./day, oral + testosterone propionate 0.1 mg./day): 192 mg
Mean Prostate Weight ([3]; 0.1 mg./day, S.C. + testosterone propionate 0.1 mg./day): 235 mg
Mean Prostate Weight ([3]; 0.1 mg./day, oral + testosterone propionate 0.1 mg./day): 267 mg
Mean Prostate Weight ([3]; 1 mg./day, S.C. + testosterone propionate 0.1 mg./day): 201 mg
Mean Prostate Weight ([3]; 1 mg./day, oral + testosterone propionate 0.1 mg./day): 242 mg
effect on androgen-stimulated prostate growth ([3]; conclusion in words, Experiments A-C): inhibited a large part of the abnormal prostate growth
Uterine weight ([4]; total dose 3 mg.): 23.1 mg
Uterine weight ([4]; total dose 0.3 mcg.): 18.2 mg
Uterine weight ([4]; total dose 3 mcg.): 25.6 mg
Uterine weight ([4]; total dose 30 mcg.): 26.2 mg
Uterine weight ([4]; total dose 300 mcg.): 24.8 mg
